# Experiments:
# Assay type in all cases: biochemical
# [1] = target: T1, recombinant human DPP7 (Homo sapiens, UniProt Q9UHL4); assay: DPP7 inhibition, fluorogenic substrate Lys-Pro-AMC; conditions: recombinant human DPP7
# T1 construct: purchased R&D Systems
# How it was run: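 Enzyme per reaction: 50 ng DPP9, 20 ng DPP8, 10 ng each DPP7 and PREP. Compounds were serially diluted (8 points, up to 0.5% DMSO) and incubated at 25 °C.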
# [2] = target: T2, recombinant human DPP9 (Homo sapiens, UniProt Q86TI2); assay: DPP9 inhibition, fluorogenic substrate H-Gly-Pro-AMC; conditions: recombinant human DPP9
# T2 construct: purchased R&D Systems
# Method: (§1) The compounds according to the present technology were evaluated in terms of the inhibitory effect on the activity of dipeptidyl peptidases including FAP by using a substrate producing fluorescent substances upon enzymatic decomposition. The test was conducted at 25° C. to get a final reaction volume of 100 μL in a 96 black well plate. […] Briefly, the test compounds were dissolved in dimethyl sulfoxide (DMSO) at a concentration of 20 mM and then subjected to serial dilution, thereby creating an 8 point curve. As for the control group, a 6 point curve created by serial dilution of Talabostat in the same buffer solution was used. Fluorescence intensity was measured using a microplate reader (Flexstation3, Molecular Devices) under the wavelength condition exciting at 380 nm and reading the emission at 460 nm. The inhibitory effect of the test compounds was measured as a decrease (%) in the signal rate as compared to the control group without any inhibitor. Data was fixed to a logistic model with four variables and IC50 value was calculated using GraphPad Prism program. As for recombinant human DPP4 (R&D Systems), 25 mM tris (pH 8.0) buffer as a buffer solution and H-Gly-Pro-AMC (Bachem) as a substrate were used. As for recombinant human DPP7 (R&D Systems), 25 mM MES (pH 6.0) buffer as a buffer solution and Lys-Pro-AMC (Bachem) as a substrate were used. As for recombinant human DPP8 (PBS Bioscience), as a buffer solution, a 10 mM tris (pH 7.4) buffer comprising 10 mM of magnesium chloride and 0.05% of Tween 20, and Z-Ala-Pro-AMC (BPS Bioscience) as a substrate were used. As for recombinant human DPP9 (R&D Systems), a 25 mM tris (pH 8.0) buffer as a buffer solution and H-Gly-Pro-AMC (Bachem) as a substrate were used. As for recombinant human PREP (R&D System), as a buffer solution, a 25 mM tris (pH 7.5) buffer comprising 250 mM sodium chloride and 2.5 mM DTT (Dithiolthreitol), and Z-Gly-Pro-AMC (Bachem) as a substrate were used. The evaluation was made by using 10 ng of DPP4, PDD7, and PREP, 20 ng of DPP8, and 50 ng of DPP9 based on the final reaction. In the evaluation of DPP4, the test compounds were subjected to serial dilution in a buffer under the condition containing up to 0.1% of DMSO. In the evaluation of DPP7, DPP8, DPP9, and PREP, the test compounds were subjected to serial dilution in each buffer under the condition containing up to 0.5% of DMSO.
# [3] = target: T3, recombinant human PREP (Homo sapiens, UniProt P48147); assay: PREP inhibition, fluorogenic substrate Z-Gly-Pro-AMC; conditions: Inhibitory Activity (IC50, nM) PREP, recombinant human PREP
# T3 construct: purchased R&D System
# T3 sequence (P48147 1-710): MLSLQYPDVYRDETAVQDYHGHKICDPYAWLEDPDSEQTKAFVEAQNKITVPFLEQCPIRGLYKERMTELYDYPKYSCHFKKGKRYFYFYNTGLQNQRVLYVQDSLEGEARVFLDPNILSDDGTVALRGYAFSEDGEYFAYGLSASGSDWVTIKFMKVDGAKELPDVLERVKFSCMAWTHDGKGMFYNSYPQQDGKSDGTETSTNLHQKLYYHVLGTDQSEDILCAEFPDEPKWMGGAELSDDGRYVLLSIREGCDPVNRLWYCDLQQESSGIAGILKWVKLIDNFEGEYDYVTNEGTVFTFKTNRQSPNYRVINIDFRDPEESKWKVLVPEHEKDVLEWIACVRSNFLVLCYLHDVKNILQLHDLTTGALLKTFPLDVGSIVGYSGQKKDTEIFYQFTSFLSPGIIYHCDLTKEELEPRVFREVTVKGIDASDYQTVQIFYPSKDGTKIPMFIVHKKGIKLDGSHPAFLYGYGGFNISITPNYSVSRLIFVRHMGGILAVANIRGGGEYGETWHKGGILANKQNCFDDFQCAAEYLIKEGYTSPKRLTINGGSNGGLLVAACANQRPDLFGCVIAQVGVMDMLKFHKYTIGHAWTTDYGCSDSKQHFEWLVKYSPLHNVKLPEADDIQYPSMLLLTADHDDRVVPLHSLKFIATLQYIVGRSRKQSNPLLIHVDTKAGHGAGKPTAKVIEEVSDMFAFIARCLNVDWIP
# Method: as §1
# [4] = target: T4, Recombinant human FAP (Homo sapiens, UniProt Q12884); assay: FAP FRET assay, FGF21-sequence FRET peptide substrate; conditions: FRET peptide with human FGF21 sequence, 6 μM, 37° C.
# T4 construct: purchased R&D systems
# T4 sequence (Q12884 1-760): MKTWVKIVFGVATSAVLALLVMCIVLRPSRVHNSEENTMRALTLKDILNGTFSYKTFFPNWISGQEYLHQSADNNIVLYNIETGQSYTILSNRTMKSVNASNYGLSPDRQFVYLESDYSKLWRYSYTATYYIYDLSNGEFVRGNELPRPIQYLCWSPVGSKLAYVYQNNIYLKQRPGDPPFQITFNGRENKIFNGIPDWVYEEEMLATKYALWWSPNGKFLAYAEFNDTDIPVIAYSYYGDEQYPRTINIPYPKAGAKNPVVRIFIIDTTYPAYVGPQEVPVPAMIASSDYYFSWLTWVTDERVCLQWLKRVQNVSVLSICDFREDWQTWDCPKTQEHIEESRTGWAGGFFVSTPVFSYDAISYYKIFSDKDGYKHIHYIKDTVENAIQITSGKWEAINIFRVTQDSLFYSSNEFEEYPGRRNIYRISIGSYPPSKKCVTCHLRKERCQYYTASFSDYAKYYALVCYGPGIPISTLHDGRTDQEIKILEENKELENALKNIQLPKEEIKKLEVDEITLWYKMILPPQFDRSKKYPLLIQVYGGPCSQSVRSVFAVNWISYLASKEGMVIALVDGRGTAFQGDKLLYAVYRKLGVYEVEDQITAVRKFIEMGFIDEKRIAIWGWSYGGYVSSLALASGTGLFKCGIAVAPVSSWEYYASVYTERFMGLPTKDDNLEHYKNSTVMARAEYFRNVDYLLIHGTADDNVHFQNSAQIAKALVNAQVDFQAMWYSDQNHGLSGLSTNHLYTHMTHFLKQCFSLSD
# How it was run: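 Recombinant human FAP, 10 ng per reaction, in 50 mM HEPES pH 7.2 with 150 mM NaCl, 0.1 mg/ml BSA, 1 mM EDTA; HyLite Fluor 488/QXL 520 FRET peptide of human FGF21 sequence at 6 μM final, ≤0.1% DMSO, 37° C. IC50 from 8-point curves by four-parameter logistic fit.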
# [5] = target: DPP4 (Homo sapiens, UniProt P27487); assay: DPP4 inhibition, fluorogenic substrate H-Gly-Pro-AMC; parameters: purchased R&D Systems; conditions: recombinant human DPP4
# Chain of DPP4 (P27487 whole entry): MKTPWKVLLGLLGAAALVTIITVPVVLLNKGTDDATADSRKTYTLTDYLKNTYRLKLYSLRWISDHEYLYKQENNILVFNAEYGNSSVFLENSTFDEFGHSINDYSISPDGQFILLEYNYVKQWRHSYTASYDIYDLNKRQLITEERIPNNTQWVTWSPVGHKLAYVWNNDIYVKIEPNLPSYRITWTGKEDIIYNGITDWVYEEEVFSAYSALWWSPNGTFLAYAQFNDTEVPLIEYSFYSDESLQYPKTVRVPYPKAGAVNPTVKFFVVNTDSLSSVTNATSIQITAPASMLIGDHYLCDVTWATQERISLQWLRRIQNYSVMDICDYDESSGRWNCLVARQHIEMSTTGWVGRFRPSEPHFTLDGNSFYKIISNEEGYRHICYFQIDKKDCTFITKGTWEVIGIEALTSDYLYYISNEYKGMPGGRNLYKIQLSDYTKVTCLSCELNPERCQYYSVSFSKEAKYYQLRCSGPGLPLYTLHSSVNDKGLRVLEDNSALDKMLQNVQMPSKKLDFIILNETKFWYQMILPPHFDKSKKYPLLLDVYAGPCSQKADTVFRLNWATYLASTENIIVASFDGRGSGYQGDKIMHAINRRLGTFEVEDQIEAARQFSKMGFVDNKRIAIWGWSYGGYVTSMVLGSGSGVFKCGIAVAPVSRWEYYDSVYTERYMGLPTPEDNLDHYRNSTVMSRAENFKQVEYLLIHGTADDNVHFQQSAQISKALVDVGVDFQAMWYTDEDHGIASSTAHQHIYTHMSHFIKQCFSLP
# T2 sequence (Q86TI2 whole entry): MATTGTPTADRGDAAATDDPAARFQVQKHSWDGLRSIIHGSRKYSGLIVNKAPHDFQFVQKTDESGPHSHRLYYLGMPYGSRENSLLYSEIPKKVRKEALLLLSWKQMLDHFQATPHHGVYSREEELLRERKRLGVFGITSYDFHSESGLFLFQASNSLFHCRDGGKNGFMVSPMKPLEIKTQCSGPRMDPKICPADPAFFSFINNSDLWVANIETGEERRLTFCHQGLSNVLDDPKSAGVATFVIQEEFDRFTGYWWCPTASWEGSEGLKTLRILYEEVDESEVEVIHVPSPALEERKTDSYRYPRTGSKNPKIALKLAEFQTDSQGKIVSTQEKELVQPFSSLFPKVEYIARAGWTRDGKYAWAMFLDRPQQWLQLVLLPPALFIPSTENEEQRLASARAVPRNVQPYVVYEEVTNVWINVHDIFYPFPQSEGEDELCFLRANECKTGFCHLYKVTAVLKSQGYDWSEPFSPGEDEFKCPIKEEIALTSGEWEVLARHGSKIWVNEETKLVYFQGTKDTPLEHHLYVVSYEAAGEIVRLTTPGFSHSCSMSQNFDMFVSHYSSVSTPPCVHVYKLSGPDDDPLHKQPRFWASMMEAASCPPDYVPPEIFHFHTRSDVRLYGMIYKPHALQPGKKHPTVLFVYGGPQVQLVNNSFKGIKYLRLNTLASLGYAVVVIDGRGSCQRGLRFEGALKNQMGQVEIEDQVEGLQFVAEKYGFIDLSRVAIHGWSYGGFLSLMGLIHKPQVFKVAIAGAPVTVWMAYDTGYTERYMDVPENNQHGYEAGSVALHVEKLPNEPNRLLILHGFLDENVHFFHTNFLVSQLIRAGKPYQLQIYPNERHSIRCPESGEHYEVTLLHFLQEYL
Structure (SMILES),IC50 [1] [nM],IC50 [2] [nM],IC50 [3] [nM],IC50 [4] [nM],IC50 [5] [nM]
"N#C[C@@H]1C[C@H](F)CN1C(=O)CN1CC[C@@H](Nc2ccc(OC(F)(F)F)c3ncccc23)C1 [Example 186, (2S,4S)-4-fluoro-1-[2-[(3R)-3-[[8-(trifluoromethoxy)-5-quinolyl]amino]pyrrolidin-1-yl]acetyl]pyrrolidine-2-carbonitrile]",2020,4410,3590,2.7,2220
"N#C[C@@H]1C[C@H](F)CN1C(=O)CN1CC[C@@H](Nc2ccnc3c(Cl)cccc23)C1 [Example 189, (2S,4S)-4-fluoro-1-[2-[(3R)-3-[(8-chloro-4-quinolyl)amino]pyrrolidin-1-yl]acetyl]pyrrolidine-2-carbonitrile]",2580,1510,1150,10,3500
"N#C[C@@H]1CCCN1C(=O)CN1CC[C@@H](Nc2cc(F)cc3ncccc23)C1 [Example 197, (2S)-1-[2-[(3R)-3-[(7-fluoro-5-quinolyl)amino]pyrrolidin-1-yl]acetyl]pyrrolidine-2-carbonitrile]",4120,23800,14700,5.2,13400
"N#C[C@@H]1CCCN1C(=O)CN1CC[C@@H](Nc2cccc3ncc(Cl)cc23)C1 [Example 203, (2S)-1-[2-[(3R)-3-[(3-chloro-5-quinolyl)amino]pyrrolidin-1-yl]acetyl]pyrrolidine-2-carbonitrile]",3260,11200,12200,0.9,4660
"COc1cnc2cccc(N[C@@H]3CCN(CC(=O)N4CCC[C@H]4C#N)C3)c2c1 [Example 204, (2S)-1-[2-[(3R)-3-[(3-methoxy-5-quinolyl)amino]pyrrolidin-1-yl]acetyl]pyrrolidine-2-carbonitrile]",3870,16200,11500,2.1,6200

# Molecules with a lower IC50 [1], results first:
IC50 [1] [nM],IC50 [2] [nM],IC50 [3] [nM],IC50 [4] [nM],IC50 [5] [nM],Structure (SMILES)
1370,6770,3370,2.2,1840,"N#C[C@@H]1C[C@H](F)CN1C(=O)CN1CC[C@@H](Nc2ccc(C(F)(F)F)c3ncccc23)C1 [Example 183, (2S,4S)-4-fluoro-1-[2-[(3R)-3-[[8-(trifluoromethyl)-5-quinolyl]amino]pyrrolidin-1-yl]acetyl]pyrrolidine-2-carbonitrile]"
1300,2750,3550,2.1,995,"N#C[C@@H]1C[C@H](F)CN1C(=O)CN1CC[C@@H](Nc2cccc3ncc(Cl)cc23)C1 [Example 185, (2S,4S)-4-fluoro-1-[2-[(3R)-3-[(3-chloro-5-quinolyl)amino]pyrrolidin-1-yl]acetyl]pyrrolidine-2-carbonitrile]"
63.7,1390,1250,16.7,12500,"Cc1cccc2c(N[C@@H]3CCN(CC(=O)N4C[C@@H](F)C[C@H]4C#N)C3)ccnc12 [Example 190, (2S,4S)-4-fluoro-1-[2-[(3R)-3-[(8-methyl-4-quinolyl)amino]pyrrolidin-1-yl]acetyl]pyrrolidine-2-carbonitrile]"
901,14900,2920,8.6,9460,"COc1cc(N[C@@H]2CCN(CC(=O)N3CCC[C@H]3C#N)C2)c2cccnc2c1 [Example 198, (2S)-1-[2-[(3R)-3-[(7-methoxy-5-quinolyl)amino]pyrrolidin-1-yl]acetyl]pyrrolidine-2-carbonitrile]"
1700,27300,6090,6.3,5510,"Cc1ccc(N[C@@H]2CCN(CC(=O)N3CCC[C@H]3C#N)C2)c2cccnc12 [Example 200, (2S)-1-[2-[(3R)-3-[(8-methyl-5-quinolyl)amino]pyrrolidin-1-yl]acetyl]pyrrolidine-2-carbonitrile]"

# Reference: patent publication US11655235B2, “Pyrrolidine and piperidine compounds” (YUHAN CORPORATION, priority 2019, dated 2023)
